Test results taken from patent US20150071941A1, “TREATMENT OF ISCHEMIC RETINOPATHIES” (THE JOHNS HOPKINS UNIVERSITY, priority 2012, published 2015).
Entries after “also recorded” stand apart in the source; their conditions may differ.

Assays:
Vegf [1] = assay: OIR mouse model: RT-PCR of Vegf mRNA in neurosensory retina; assay type: in vivo; details: OIR mice P12-P14, daily intraperitoneal digoxin
Method: (§1) Oxygen-Induced Retinopathy (OIR). […] At P12 the mice were returned to room air.
(§2) Quantitative Real-Time RT-PCR. RNA was isolated from culture cells or retinas with RNeasy Mini Kit (Qiagen) and cDNA prepared using MuLV Reverse Transcriptase (Applied Biosystems, Carlsbad, Calif.). Quantitative real-time PCR was performed with Power SYBR Green PCR Master Mix (Applied Biosystems) and MyiQ Real-Time PCR Detection System (Bio Rad). Normalization was done using cyclophilin A for mouse tissue and cell lines and β-actin for human cell lines. Primers for qPCR include: human VEGF, forward—[…] (SEQ ID NO:1) and reverse—[…] (SEQ ID NO:2); human ANGPTL4, forward—[…] (SEQ ID NO:3) and reverse—[…] (SEQ ID NO:4); human β-actin, forward—[…] (SEQ ID NO:5) and reverse—[…](SEQ ID NO:6); mouse VEGF, forward—[…] (SEQ ID NO:7) and reverse—[…](SEQ ID NO:8); mouse ANGPTL4, forward—[…] (SEQ ID NO:9) and reverse—[…] (SEQ ID NO:10); mouse cyclophilin A, forward—[…] (SEQ ID NO:11) and reverse—[…] (SEQ ID NO:12).

ANGPTL4 [2] = assay: MIO-M1 Müller cells: ANGPTL4 mRNA (RT-PCR) and protein (Western blot/ELISA); assay type: cell-based, human; details: digoxin pretreatment (100 ng as printed), 2 hours prior hypoxia
Method: (§3) Cell Culture and Reagents. MIO-M1 cells were a generous gift from Astrid Limb (University College London Institute of Ophthalmology). Isolation of primary Müller cells was performed as previously described (51). Primary human dermal microvascular endothelial cells (HMVEC) were obtained from Lonza and cultured according the manufacter's protocols. Recombinant ANGPTL4 and VEGF, and ANGPTL4 and VEGF ELISA kits were obtained from R&D Systems. The KDR inhibitor, SU1498, and rapamycin were obtained from Calbiochem. Digoxin was obtained from Sigma. Predesigned control (Scrambled) and ANGPTL4 and HIF-1β siRNA sequences were obtained from Qiagen. AdLacZ and AdCAS have been previously described (26).
(§4) Quantitative Real-Time RT-PCR. RNA was isolated from culture cells or retinas with RNeasy Mini Kit (Qiagen) and cDNA prepared using MuLV Reverse Transcriptase (Applied Biosystems, Carlsbad, Calif.). Quantitative real-time PCR was performed with Power SYBR Green PCR Master Mix (Applied Biosystems) and MyiQ Real-Time PCR Detection System (Bio Rad). Normalization was done using cyclophilin A for mouse tissue and cell lines and β-actin for human cell lines. Primers for qPCR include: human VEGF, forward—[…] (SEQ ID NO:1) and reverse—[…] (SEQ ID NO:2); human ANGPTL4, forward—[…] (SEQ ID NO:3) and reverse—[…] (SEQ ID NO:4); human β-actin, forward—[…] […]

VEGF [3] = assay: MIO-M1 Müller cells: VEGF mRNA (RT-PCR) and secreted protein (ELISA); assay type: cell-based, human; details: digoxin 100 nM, 2 hours prior to hypoxia; 8 hours hypoxia
Method: as §3, §4

Angptl4 [4] = assay: OIR mouse model: RT-PCR of Angptl4 mRNA in neurosensory retina; assay type: in vivo; details: OIR mice P12-P14, daily intraperitoneal digoxin
Method: as §1, §2

inner retina vessels [5] = assay: OIR mouse model: vascular permeability / retinal edema (inner retinal cysts, extravascular albumin); assay type: in vivo; details: P13 OIR mice, digoxin 2 mg/kg daily intraperitoneal
Method: as §1
(§5) Quantitation of vascular permeability in the retina was assessed by examining 4 high powered fields of the posterior retina from three animals and counting the number of CD31-labled inner retina vessels in the posterior retina that had visible adjacent extravascular albumin (detected by immunofluorescence) as a percent of the total vessels in each field.
(§6) Immunohistochemistry and Immunofluorescence. Immunohistochemical detection of extravascular albumin (Cedarlane-Nordic) was performed on cryopreserved mouse tissue sections using a nitroblue tetrazolium (NBT) development system using Streptavidin alkaline phosphatase (APase) as previously described (53) Immunohistochemical detection of HIF-1 alpha (Abcam), human and murine ANGPTL4 (Abcam and Lifespan BioSciences, respectively), VEGF (Santa Cuz), CD34 (Covance), and GFAP (Sigma) were performed in paraffin embedded human tissue (obtained from the Wilmer Eye Institute Ocular Pathology Archives with approval from the Johns Hopkins School of Medicine Internal Review Board) and mice cryopreserved tissue using ABC system (Dako) as previously described (4).

GFAP = assay: OIR mouse model: GFAP expression in Müller cells; assay type: in vivo; details: OIR mice, administration of digoxin
Source text: as §1

[6] = system: human dermal microvascular endothelial cells (HMVECs); assay: In vitro endothelial cell permeability assay (passage of FITC-dextran through HMVEC monolayer); assay type: cell-based
Method: Permeability Assays. In vitro permeability assay was performed as previously described (48). Briefly, HMVEC were seeded on collagen-coated transwells ([…], PTFE; Corning), and allowed to grow as a 3-d-old mature monolayer. Following overnight starvation, 500 μL and 100 μL of conditioned medium were added for 30 min (37° C.) to the bottom and top chamber, respectively. A total of 100 μL of 1 mg/mL FITC dextran (molecular weight=40,000; Invitrogen) was added for 30 min. Fluorescence was quantified using a SpectraMax M5 Microplate Reader (Molecular Devices) with excitation at 494 nm and emission at 521 nm.

inner retina vessels [7] = assay: Intravitreal injection of recombinant protein into the mouse eye: retinal vascular permeability; assay type: in vivo
Method: […]. Intraocular injections with 1 μl of rmVEGF or rmANGPTL4 (200 ng/ul) were performed with a nanofil syringe (World Precision Instruments) using a 36G beveled needle. Intraocular injections with 1 μl of AdLacZ or AdCAS (2×10^12 VP/mL) were performed with pulled-glass micropipettes and a Harvard pump microinjection apparatus as previously described (52).
as §5, §6

mouse ear vasculature = assay: Modified Miles assay, vascular permeability in the mouse ear; assay type: in vivo; details: intradermal injection of ANGPTL4 0.2 μg vs PBS
Method: In vivo permeability was assessed using a modified Miles assay as previously described (48). Briefly, Evan Blue dye was injected into mouse tail veins (200 μL of 12 mg/ml solution in PBS). After 5 minutes, animals were anesthetized using Tribromoethanol. 20 ul 0.2 ug VEGF or 0.2 ug ANGPTL4 was injected intradermally into the right ear (PBS was injected into left ear as a control). After 8 minutes, photographs were taken. Levels of Evans blue dye was then extracted from mouse ear in 1 mL of formamide at 55° C. for 16 hours and dye content quantified at 610 nm using a spectrophotometer (48).

angiogenesis = assay: Promotion of angiogenesis / NV in vitro and in vivo (Example 9, cornea pocket assay)
Source text: Cell Culture: ARPE19, human ES derived RPE cells, primary murine RPE cells. Rat: Subretinal lipid hydroperoxide CNV Model. Assays used included Cornea pocket assay, Western Blot and RT-PCR, and Immunohistochemistry and Immunofluorescence. Patient Samples: ELISA analysis of ANGPTL4 levels in aqueous humor.

C[C@H]1O[C@@H](O[C@H]2[C@@H](O)C[C@H](O[C@H]3[C@@H](O)C[C@H](O[C@H]4CC[C@@]5(C)[C@H](CC[C@@H]6[C@@H]5C[C@@H](O)[C@]5(C)[C@@H](C7=CC(=O)OC7)CC[C@]65O)C4)O[C@@H]3C)O[C@@H]2C)C[C@H](O)[C@@H]1O [digoxin]
induction of Vegf mRNA (Vegf [1]): only partially inhibited the induction of Vegf | ANGPTL4 RNA and protein induced by hypoxia (ANGPTL4 [2]): inhibited | VEGF mRNA expression and protein secretion (VEGF [3]): inhibited VEGF mRNA expression and protein secretion; also recorded: inhibits | induction of Angptl4 mRNA (Angptl4 [4]): completely abolished the induction of Angptl4 | vascular permeability (inner retinal cysts, extravasated albumin) (inner retina vessels [5]): decrease in vascular permeability; also recorded: inhibits the increase in inner retinal cysts and extravasated albumin | GFAP expression (GFAP): not affected | endothelial cell permeability promoted by conditioned media from hypoxic MIO-M1 cells ([6]; MIO-M1 pre-treated with 100 nM digoxin 2 hours prior to 8 hour hypoxia): potently blocked the property of the conditioned media to promote an increase in endothelial cell permeability; also recorded: inhibits the promotion of endothelial cell permeability by hypoxic MIO-M1 cells

CC(C)c1cc(/C=C(\C#N)C(=O)NCCCc2ccccc2)cc(C(C)C)c1O [SU1498]
endothelial cell permeability promoted by 100 ng recombinant human VEGF ([6]; SU1498 5 μM pre-treatment of endothelial cells): completely blocked the induction of endothelial cell permeability; also recorded: abolishes the promotion of endothelial cell permeability by 100 ng of recombinant human VEGF | endothelial cell permeability promoted by conditioned media from hypoxic MIO-M1 cells ([6]; SU1498 5 μM pre-treatment of endothelial cells, 8 hours hypoxia): only a partial inhibition of endothelial cell permeability; also recorded: only partially blocks the promotion of endothelial cell permeability

VEGF
endothelial cell permeability ([6]; VEGF 100 ng): promotes endothelial cell permeability

B1: rmANGPTL4: recombinant murine ANGPTL4 injected intravitreally (protein, UniProt Q9Z1P8 24-410, looked up)
Angiopoietin-related protein 4: QGRPAQPEPPRFASWDEMNLLAHGLLQLGHGLREHVERTRGQLGALERRMAACGNACQGPKGKDAPFKDSEDRVPEGQTPETLQSLQTQLKAQNSKIQQLFQKVAQQQRYLSKQNLRIQNLQSQIDLLAPTHLDNGVDKTSRGKRLPKMTQLIGLTPNATHLHRPPRDCQELFQEGERHSGLFQIQPLGSPPFLVNCEMTSDGGWTVIQRRLNGSVDFNQSWEAYKDGFGDPQGEFWLGLEKMHSITGNRGSQLAVQLQDWDGNAKLLQFPIHLGGEDTAYSLQLTEPTANELGATNVSPNGLSLPFSTWDQDHDLRGDLNCAKSLSGGWWFGTCSHSNLNGQYFHSIPRQRQERKKGIFWKTWKGRYYPLQATTLLIQPMEATAAS
inner retinal cysts (H & E) (inner retina vessels [7]; 200 ng rmANGPTL4 intravitreal vs PBS): increased inner retinal cysts | extravasation of albumin (immunohistochemistry) (inner retina vessels [7]; 200 ng rmANGPTL4 intravitreal vs control): extravasation of albumin | vascular permeability (leakage of plasma and albumin) (inner retina vessels [7]; rmANGPTL4 intravitreal, retinas after 48 hours): marked and statistically significant increase in vascular permeability

B2: ANGPTL4: Recombinant angiopoietin-like 4 protein obtained from R&D Systems (protein, UniProt Q9BY76 26-406, looked up)
Angiopoietin-related protein 4: GPVQSKSPRFASWDEMNVLAHGLLQLGQGLREHAERTRSQLSALERRLSACGSACQGTEGSTDLPLAPESRVDPEVLHSLQTQLKAQNSRIQQLFHKVAQQQRHLEKQHLRIQHLQSQFGLLDHKHLDHEVAKPARRKRLPEMAQPVDPAHNVSRLHRLPRDCQELFQVGERQSGLFEIQPQGSPPFLVNCKMTSDGGWTVIQRRHDGSVDFNRPWEAYKAGFGDPHGEFWLGLEKVHSITGDRNSRLAVQLRDWDGNAELLQFSVHLGGEDTAYSLQLTAPVAGQLGATTVPPSGLSVPFSTWDQDHDLRRDKNCAKSLSGGWWFGTCSHSNLNGQYFRSIPQQRQKLKKGIFWKTWRGRYYPLQATTMLIQPMAAEAAS
vascular permeability (Evans blue dye, 610 nm) (mouse ear vasculature): remarkable increase in vascular permeability; also recorded: marked increase in dye | promotion of angiogenesis (angiogenesis): promoted angiogenesis both in vitro and in vivo | endothelial cell permeability ([6]; recombinant human ANGPTL4 2.5 or 5 μg): potently induced endothelial cell permeability | endothelial cell permeability ([6]; recombinant human ANGPTL4 2.5 or 5 μg, listed as recombinant human ANGPTL4): promotes endothelial cell permeability
